Source: article PMC2151509 (The Journal of General Physiology, 2006)
Positions count from the first letter of the chain named.

Experiments:
[1] = molecular target: T1, rat olfactory CNGA2 channel (homomeric) (Rattus norvegicus, UniProt Q00195, E342K); test: inside-out patch clamp, cGMP-activated current, Hill fit; assay type: cell-based
T1 sequence (Q00195 1-664 E342K): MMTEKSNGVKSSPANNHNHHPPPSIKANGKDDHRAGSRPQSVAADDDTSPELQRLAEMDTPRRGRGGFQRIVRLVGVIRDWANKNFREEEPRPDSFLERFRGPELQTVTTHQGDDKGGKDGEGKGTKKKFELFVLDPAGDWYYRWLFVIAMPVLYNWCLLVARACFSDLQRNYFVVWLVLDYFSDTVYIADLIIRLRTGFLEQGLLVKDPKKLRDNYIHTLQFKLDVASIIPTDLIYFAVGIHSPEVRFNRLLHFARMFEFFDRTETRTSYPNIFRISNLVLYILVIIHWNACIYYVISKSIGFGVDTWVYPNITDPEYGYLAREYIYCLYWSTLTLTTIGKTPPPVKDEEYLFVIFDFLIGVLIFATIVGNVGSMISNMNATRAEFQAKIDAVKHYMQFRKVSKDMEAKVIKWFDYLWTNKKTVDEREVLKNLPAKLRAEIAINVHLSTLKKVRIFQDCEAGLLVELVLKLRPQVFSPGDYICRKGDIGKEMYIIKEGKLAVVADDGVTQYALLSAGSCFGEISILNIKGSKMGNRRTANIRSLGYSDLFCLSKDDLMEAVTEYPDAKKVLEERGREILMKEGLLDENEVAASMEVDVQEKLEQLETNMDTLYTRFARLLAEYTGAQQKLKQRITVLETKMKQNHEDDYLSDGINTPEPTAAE

[2] = molecular target: T2, rat olfactory CNGA2 channel (homomeric) (Rattus norvegicus, UniProt Q00195); test: inside-out patch clamp, cGMP-activated current; assay type: biochemical; conditions: agonist; 5 mM cGMP; 145 mM NaCl, pH 7.4, 21 °C
T2 sequence (Q00195 1-664): T1 sequence (Q00195 1-664 E342K) with K342E

## Nc1nc2c(ncn2[C@@H]2O[C@@H]3COP(=O)(O)O[C@H]3[C@H]2O)c(=O)[nH]1 [cGMP]
[1]
  EC50: 8.6 ± 1.2 µM
[2]
  inside-out patch clamp, cGMP-activated current: Macroscopic cGMP-activated currents in different NaCl dilutions in one inside-out patch with WT CNG channels
